Reference: ChEMBL document CHEMBL3991601, “The target landscape of clinical kinase drugs” (Science, 2017)
Activity calls are given as the source filed them. Cut-off read from the data, not from the text of the source, for most assays here: actives have a measured Kd and inactives only a lower limit.

Legend:
[1] = target: T1, Mitogen-activated protein kinase kinase kinase kinase 3 (Homo sapiens, UniProt Q8IVH8)
T1 sequence (Q8IVH8 whole entry): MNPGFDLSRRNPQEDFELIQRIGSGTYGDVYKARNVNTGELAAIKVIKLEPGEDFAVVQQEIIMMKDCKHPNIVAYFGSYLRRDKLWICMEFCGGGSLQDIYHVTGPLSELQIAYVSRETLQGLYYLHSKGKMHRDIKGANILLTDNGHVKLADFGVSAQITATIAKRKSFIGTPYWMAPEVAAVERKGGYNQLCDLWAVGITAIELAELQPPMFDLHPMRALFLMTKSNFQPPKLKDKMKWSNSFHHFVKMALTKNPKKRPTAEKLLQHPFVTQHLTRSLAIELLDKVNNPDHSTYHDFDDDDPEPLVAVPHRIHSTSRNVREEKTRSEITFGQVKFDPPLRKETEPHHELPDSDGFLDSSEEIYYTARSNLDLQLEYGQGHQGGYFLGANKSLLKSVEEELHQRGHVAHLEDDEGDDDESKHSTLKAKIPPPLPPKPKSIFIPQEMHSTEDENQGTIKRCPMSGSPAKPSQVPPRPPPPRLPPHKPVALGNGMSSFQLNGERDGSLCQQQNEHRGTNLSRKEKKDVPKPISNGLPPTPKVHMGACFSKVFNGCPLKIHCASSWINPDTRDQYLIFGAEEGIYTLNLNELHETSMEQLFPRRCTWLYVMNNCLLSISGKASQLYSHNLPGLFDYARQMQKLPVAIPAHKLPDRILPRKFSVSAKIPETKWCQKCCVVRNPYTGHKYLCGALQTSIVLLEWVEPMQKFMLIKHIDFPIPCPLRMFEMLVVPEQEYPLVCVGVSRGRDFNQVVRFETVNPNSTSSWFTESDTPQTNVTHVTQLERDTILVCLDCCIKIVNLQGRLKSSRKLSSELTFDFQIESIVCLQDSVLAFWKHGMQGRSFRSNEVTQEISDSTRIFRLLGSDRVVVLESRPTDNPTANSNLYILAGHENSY

Ephrin type-B receptor 6 = target: T2, Ephrin type-B receptor 6 (Homo sapiens, UniProt O15197)
T2 sequence (O15197 whole entry): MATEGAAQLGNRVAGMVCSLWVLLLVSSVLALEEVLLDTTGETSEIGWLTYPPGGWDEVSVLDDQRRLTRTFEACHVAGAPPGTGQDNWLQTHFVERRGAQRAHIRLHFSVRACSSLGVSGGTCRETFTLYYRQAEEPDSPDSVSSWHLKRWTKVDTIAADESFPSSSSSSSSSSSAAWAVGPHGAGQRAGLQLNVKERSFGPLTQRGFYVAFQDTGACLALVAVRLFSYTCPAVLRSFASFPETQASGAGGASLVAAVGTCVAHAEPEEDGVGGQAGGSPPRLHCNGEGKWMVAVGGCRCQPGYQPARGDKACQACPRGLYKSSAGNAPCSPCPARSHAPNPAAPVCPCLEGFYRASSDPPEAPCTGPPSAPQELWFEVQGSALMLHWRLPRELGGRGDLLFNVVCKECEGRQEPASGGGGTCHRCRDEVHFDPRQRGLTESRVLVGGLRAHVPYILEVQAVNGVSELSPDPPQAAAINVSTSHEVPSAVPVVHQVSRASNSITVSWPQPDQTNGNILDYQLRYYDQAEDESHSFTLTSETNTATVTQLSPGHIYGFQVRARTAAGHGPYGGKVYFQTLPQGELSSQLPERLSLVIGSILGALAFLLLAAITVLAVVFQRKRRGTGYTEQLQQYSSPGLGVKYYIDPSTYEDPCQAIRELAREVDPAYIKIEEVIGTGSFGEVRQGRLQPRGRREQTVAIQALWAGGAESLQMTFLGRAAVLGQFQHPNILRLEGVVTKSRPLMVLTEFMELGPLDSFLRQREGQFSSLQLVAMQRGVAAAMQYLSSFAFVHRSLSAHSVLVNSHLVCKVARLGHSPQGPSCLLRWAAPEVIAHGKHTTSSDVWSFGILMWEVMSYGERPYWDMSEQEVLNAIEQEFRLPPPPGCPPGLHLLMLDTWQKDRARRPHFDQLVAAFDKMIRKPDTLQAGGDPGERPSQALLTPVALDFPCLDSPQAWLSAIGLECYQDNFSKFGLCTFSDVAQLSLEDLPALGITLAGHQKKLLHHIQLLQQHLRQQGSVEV

Actin-related protein 2 = Actin-related protein 2 (Homo sapiens, UniProt P61160)
[2] = target: T3, Serine/threonine-protein kinase ULK3 (Homo sapiens, UniProt Q6PHR2)
T3 sequence (Q6PHR2 whole entry): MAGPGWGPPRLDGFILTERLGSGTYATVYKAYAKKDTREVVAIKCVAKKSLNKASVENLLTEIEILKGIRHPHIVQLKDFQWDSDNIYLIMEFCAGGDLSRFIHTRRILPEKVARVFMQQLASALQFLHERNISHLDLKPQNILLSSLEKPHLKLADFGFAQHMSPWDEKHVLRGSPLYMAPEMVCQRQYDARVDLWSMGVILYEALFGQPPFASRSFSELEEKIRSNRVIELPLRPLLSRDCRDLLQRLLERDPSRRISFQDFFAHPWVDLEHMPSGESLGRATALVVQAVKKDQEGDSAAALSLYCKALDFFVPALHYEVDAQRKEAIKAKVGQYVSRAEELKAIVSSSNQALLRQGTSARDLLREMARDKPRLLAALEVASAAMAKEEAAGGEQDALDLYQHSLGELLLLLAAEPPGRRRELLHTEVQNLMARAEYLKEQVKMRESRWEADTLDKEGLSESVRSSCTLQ

[3] = target: Mitogen-activated protein kinase 1 (Homo sapiens, UniProt P28482)
Sequence of Mitogen-activated protein kinase 1 (P28482 whole entry): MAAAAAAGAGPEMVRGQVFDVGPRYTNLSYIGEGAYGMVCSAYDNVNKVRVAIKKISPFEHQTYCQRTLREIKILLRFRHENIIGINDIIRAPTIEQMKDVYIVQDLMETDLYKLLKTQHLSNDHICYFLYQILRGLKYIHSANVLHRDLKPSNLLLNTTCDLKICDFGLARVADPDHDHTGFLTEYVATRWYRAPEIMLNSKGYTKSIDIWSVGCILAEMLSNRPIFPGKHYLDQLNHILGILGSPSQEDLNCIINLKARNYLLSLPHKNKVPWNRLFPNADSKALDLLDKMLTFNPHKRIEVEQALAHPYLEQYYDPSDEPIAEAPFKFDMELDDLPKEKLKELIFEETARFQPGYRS

Activin receptor type-2B = Activin receptor type-2B (Homo sapiens, UniProt Q13705)
Sequence of Activin receptor type-2B (Q13705 whole entry): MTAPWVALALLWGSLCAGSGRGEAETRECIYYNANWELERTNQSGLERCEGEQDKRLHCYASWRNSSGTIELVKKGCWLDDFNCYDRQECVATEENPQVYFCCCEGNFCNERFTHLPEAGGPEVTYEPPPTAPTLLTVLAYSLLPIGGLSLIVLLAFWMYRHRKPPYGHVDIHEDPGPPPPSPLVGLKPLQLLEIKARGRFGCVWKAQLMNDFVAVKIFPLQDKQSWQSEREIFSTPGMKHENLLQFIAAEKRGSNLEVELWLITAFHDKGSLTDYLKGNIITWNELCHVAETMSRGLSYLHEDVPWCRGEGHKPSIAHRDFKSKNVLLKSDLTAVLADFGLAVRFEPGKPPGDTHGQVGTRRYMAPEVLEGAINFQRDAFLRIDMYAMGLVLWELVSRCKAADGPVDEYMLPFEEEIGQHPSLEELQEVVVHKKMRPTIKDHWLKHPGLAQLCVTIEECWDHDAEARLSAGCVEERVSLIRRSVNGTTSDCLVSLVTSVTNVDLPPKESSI

[4] = target: Rho-associated protein kinase 1 (Homo sapiens, UniProt Q13464)
Sequence of Rho-associated protein kinase 1 (Q13464 whole entry): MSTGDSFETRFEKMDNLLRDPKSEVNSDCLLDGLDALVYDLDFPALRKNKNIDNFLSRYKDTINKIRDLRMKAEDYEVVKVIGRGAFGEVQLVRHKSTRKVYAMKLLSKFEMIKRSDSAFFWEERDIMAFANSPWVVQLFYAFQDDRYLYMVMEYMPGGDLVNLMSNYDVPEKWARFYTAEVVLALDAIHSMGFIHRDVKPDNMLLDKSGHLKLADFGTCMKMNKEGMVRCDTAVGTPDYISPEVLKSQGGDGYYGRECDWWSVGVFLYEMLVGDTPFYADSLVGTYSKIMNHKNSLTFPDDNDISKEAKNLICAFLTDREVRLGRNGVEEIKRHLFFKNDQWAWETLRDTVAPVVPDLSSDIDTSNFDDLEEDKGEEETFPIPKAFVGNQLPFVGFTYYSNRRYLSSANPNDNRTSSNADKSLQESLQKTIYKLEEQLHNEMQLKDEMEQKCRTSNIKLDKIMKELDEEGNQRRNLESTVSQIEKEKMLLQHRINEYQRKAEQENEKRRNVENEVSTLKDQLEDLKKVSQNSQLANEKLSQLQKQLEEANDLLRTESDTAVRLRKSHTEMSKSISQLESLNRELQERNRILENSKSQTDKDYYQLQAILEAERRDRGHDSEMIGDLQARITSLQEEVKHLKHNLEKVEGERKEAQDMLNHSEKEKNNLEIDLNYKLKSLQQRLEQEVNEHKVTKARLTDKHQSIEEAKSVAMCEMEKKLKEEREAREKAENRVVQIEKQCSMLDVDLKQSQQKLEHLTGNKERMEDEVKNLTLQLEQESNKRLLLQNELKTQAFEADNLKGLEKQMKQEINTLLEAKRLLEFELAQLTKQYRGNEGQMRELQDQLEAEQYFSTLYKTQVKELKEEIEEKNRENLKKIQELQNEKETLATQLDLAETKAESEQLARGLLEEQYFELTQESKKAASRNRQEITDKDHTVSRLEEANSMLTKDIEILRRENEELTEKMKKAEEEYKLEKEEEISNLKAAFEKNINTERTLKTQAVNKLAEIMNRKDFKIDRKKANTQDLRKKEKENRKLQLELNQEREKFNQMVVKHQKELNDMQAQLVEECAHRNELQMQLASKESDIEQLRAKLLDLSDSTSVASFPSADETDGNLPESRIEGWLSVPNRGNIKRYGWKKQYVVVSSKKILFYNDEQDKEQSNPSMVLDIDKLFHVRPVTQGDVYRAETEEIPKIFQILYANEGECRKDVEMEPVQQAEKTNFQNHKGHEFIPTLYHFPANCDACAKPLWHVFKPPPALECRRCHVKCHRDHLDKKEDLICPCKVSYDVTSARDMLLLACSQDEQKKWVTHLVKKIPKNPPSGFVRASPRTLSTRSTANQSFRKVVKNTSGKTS

Ephrin type-A receptor 2 = Ephrin type-A receptor 2 (Homo sapiens, UniProt P29317)
Sequence of Ephrin type-A receptor 2 (P29317 whole entry): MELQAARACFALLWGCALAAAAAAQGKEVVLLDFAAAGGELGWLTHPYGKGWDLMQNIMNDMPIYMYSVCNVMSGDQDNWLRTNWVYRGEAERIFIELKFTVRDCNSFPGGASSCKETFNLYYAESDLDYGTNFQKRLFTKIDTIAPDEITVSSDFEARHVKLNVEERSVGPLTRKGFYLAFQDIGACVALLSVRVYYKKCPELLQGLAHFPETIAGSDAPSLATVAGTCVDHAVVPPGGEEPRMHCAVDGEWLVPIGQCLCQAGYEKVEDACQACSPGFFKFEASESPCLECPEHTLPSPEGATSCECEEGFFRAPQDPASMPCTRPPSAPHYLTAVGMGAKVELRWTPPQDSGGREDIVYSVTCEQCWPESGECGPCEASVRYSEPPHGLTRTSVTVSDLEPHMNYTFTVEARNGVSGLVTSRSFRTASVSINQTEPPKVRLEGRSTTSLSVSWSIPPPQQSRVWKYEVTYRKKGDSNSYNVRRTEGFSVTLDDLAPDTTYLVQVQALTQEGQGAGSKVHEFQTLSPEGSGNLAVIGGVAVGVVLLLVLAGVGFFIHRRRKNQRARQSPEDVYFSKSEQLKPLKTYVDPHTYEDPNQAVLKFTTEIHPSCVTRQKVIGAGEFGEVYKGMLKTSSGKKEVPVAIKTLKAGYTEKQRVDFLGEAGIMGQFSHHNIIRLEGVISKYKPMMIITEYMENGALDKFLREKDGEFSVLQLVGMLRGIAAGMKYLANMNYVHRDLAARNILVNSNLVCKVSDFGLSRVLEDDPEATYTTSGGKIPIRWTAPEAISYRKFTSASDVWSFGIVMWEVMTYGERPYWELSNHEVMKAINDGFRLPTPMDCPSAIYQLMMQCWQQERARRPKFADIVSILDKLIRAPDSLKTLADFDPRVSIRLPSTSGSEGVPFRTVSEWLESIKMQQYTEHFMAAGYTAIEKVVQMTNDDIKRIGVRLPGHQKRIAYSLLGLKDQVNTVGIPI

[5] = target: cAMP-dependent protein kinase catalytic subunit gamma (Homo sapiens, UniProt P22612)
Sequence of cAMP-dependent protein kinase catalytic subunit gamma (P22612 whole entry): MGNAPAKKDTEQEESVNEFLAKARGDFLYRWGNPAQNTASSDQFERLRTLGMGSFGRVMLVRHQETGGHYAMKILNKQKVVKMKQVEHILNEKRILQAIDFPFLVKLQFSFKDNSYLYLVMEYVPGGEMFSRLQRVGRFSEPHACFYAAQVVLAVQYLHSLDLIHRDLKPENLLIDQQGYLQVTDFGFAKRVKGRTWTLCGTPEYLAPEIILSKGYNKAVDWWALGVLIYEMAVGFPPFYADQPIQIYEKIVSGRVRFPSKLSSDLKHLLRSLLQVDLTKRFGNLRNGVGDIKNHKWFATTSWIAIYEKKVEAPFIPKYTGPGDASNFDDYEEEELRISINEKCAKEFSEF
Note: in the data inactive means no Kd found up to 30 µM.

Compound	Kd [1]	Kd (Ephrin type-B receptor 6)	Kd (Actin-related protein 2)	Kd [2]	Kd [3]	Kd (Activin receptor type-2B)	Kd [4]	Kd (Ephrin type-A receptor 2)	Kd [5]
Cn1ncc(Cl)c1-c1cc(C(=O)N[C@H](CN)Cc2cccc(F)c2)sc1Cl [AFURESERTIB]	> 30 µM (inactive)	> 30 µM (inactive)	> 30 µM (inactive)	> 30 µM (inactive)	> 30 µM (inactive)	> 30 µM (inactive)	2.14 µM (active)	> 30 µM (inactive)	–
CNS(=O)(=O)Nc1nccc(Cc2c(C)c3ccc(Oc4ncccn4)cc3oc2=O)c1F [AVUTOMETINIB]	> 30 µM (inactive)	> 30 µM (inactive)	> 30 µM (inactive)	> 30 µM (inactive)	> 30 µM (inactive)	> 30 µM (inactive)	> 30 µM (inactive)	> 30 µM (inactive)	–
CCc1cnn2c(NCc3ccc[n+]([O-])c3)cc(N3CCCC[C@H]3CCO)nc12 [DINACICLIB]	> 30 µM (inactive)	> 30 µM (inactive)	> 30 µM (inactive)	> 30 µM (inactive)	> 30 µM (inactive)	> 30 µM (inactive)	–	> 30 µM (inactive)	> 30 µM (inactive)
CN1CCN(c2ccc3nc(-c4c(N)c5c(F)cccc5[nH]c4=O)[nH]c3c2)CC1 [DOVITINIB]	–	–	> 30 µM (inactive)	–	–	–	–	–	> 30 µM (inactive)
COCCNCc1ccc(-c2cc3nccc(Oc4ccc(NC(=S)NC(=O)Cc5ccc(F)cc5)cc4F)c3s2)nc1 [GLESATINIB]	> 30 µM (inactive)	> 30 µM (inactive)	> 30 µM (inactive)	> 30 µM (inactive)	> 30 µM (inactive)	> 30 µM (inactive)	> 30 µM (inactive)	> 30 µM (inactive)	–
COc1cc2nccc(Oc3ccc(NC(=O)NC4CC4)c(Cl)c3)c2cc1C(N)=O [LENVATINIB]	–	> 30 µM (inactive)	> 30 µM (inactive)	> 30 µM (inactive)	> 30 µM (inactive)	> 30 µM (inactive)	> 30 µM (inactive)	> 30 µM (inactive)	> 30 µM (inactive)
Cc1cn(-c2cc(NC(=O)c3ccc(C)c(Nc4nccc(-c5cccnc5)n4)c3)cc(C(F)(F)F)c2)cn1 [NILOTINIB]	–	–	> 30 µM (inactive)	–	–	–	–	–	> 30 µM (inactive)
O=C(Nc1cccc(Cl)c1)Nc1ncc(CCNc2ncnc3ccsc23)s1 [SNS-314]	> 30 µM (inactive)	–	> 30 µM (inactive)	> 30 µM (inactive)	–	> 30 µM (inactive)	–	–	–
Nc1nc(N)c2nc(-c3cccc(O)c3)c(-c3cccc(O)c3)nc2n1 [TG100-115]	–	–	–	–	–	–	–	–	> 30 µM (inactive)
CC(C)Nc1cc(-c2c[nH]c(C(=O)N[C@H](CO)c3cccc(Cl)c3)c2)c(Cl)cn1 [ULIXERTINIB]	> 30 µM (inactive)	> 30 µM (inactive)	> 30 µM (inactive)	> 30 µM (inactive)	–	> 30 µM (inactive)	–	> 30 µM (inactive)	> 30 µM (inactive)
CCCS(=O)(=O)Nc1ccc(F)c(C(=O)c2c[nH]c3ncc(-c4ccc(Cl)cc4)cc23)c1F [VEMURAFENIB]	> 30 µM (inactive)	> 30 µM (inactive)	> 30 µM (inactive)	> 30 µM (inactive)	> 30 µM (inactive)	> 30 µM (inactive)	> 30 µM (inactive)	> 30 µM (inactive)	–
CC[C@@H]1C(=O)N(C)c2cnc(Nc3ccc(C(=O)N[C@H]4CC[C@H](N5CCN(CC6CC6)CC5)CC4)cc3OC)nc2N1C(C)C [VOLASERTIB]	> 30 µM (inactive)	> 30 µM (inactive)	> 30 µM (inactive)	> 30 µM (inactive)	> 30 µM (inactive)	> 30 µM (inactive)	> 30 µM (inactive)	> 30 µM (inactive)	–

Continued, values first:

Kd [1]	Kd (Ephrin type-B receptor 6)	Kd (Actin-related protein 2)	Kd [2]	Kd [3]	Kd (Activin receptor type-2B)	Kd [4]	Kd (Ephrin type-A receptor 2)	Kd [5]	Compound
0.049 µM (active)	> 30 µM (inactive)	> 30 µM (inactive)	> 30 µM (inactive)	> 30 µM (inactive)	> 30 µM (inactive)	–	> 30 µM (inactive)	–	COc1cc(CCc2cc(NC(=O)c3ccc(N4C[C@@H](C)N[C@@H](C)C4)cc3)n[nH]2)cc(OC)c1 [AZD-4547]
–	0.073 µM	> 30 µM (inactive)	0.801 µM (active)	–	> 30 µM (inactive)	–	–	–	Cc1nc(N)sc1-c1ccnc(Nc2ccc(N3CCOCC3)cc2)n1 [CYC-116]
> 30 µM (inactive)	> 30 µM (inactive)	> 30 µM (inactive)	0.476 µM (active)	–	> 30 µM (inactive)	–	–	> 30 µM (inactive)	Cc1cc(Nc2cc(N3CCN(C)CC3)nc(/C=C/c3ccccc3)n2)n[nH]1 [ENMD-2076]
–	–	> 30 µM (inactive)	–	–	–	–	–	> 30 µM (inactive)	CCn1c(-c2nonc2N)nc2c(C#CC(C)(C)O)ncc(OC[C@H]3CCCNC3)c21 [GSK-690693]
> 30 µM (inactive)	> 30 µM (inactive)	> 30 µM (inactive)	> 30 µM (inactive)	> 30 µM (inactive)	> 30 µM (inactive)	> 30 µM (inactive)	–	–	O=C(O)[C@]1(Cc2cccc(Nc3nccs3)n2)CC[C@@H](Oc2cccc(Cl)c2F)CC1 [MK-5108]
> 30 µM (inactive)	> 30 µM (inactive)	> 30 µM (inactive)	> 30 µM (inactive)	> 30 µM (inactive)	> 30 µM (inactive)	–	> 30 µM (inactive)	–	OCCn1cc(-c2cnc3nnn(Cc4ccc5ncccc5c4)c3n2)cn1 [PF-04217903]
> 30 µM (inactive)	> 30 µM (inactive)	> 30 µM (inactive)	> 30 µM (inactive)	> 30 µM (inactive)	> 30 µM (inactive)	> 30 µM (inactive)	> 30 µM (inactive)	–	CNC(=O)c1ccc(C)c(-n2c(C)cc(OCc3ccc(F)cc3F)c(Br)c2=O)c1 [PH-797804]
> 30 µM (inactive)	> 30 µM (inactive)	> 30 µM (inactive)	0.297 µM (active)	> 30 µM (inactive)	> 30 µM (inactive)	–	> 30 µM (inactive)	> 30 µM (inactive)	O=C(Nc1ccc(-c2ccnc(Nc3ccc(N4CCOCC4)cc3)n2)cc1)C1CCCN1 (stereo unspecified) [XL-019]
